The assay relates to normotensive dogs. As to the kind of experiment: Pharmacodynamics (IOP) after single topical ocular dose of SEQ ID NO:1, latanoprost or their combination. It is filed as in vivo. Particulars: for maximum percent change in intraocular pressure compared to contralateral eye / intraocular pressure: female dogs; for maximum percent change in intraocular pressure compared to contralateral eye: 0.03% SEQ ID NO:1, 0.005% latanoprost, alone or adjunctive, FIG. 6; for intraocular pressure: topical ocular 0.005% latanoprost, 0.03% SEQ ID NO:1, alone or adjunctively, FIG. 7. The method, then:
A study of the pharmacodynamics following a single ascending topical ocular dose of SEQ ID NO:1; latanoprost; or a latanoprost/SEQ ID NO:1 combination was undertaken in normotensive dogs.
Animals were not fasted prior to dose administration. As appropriate, latanoprost was administered first followed by SEQ ID NO:1 approximately 5 minutes later. […] After the dose was administered, the eye was allowed to close naturally. Each animal was then restrained for approximately 1 minute to prevent rubbing of the eyes. The right eye was dosed first. All measurement and collection times were based on the time of dosing of the second (left) eye.
Following arrival, animals were preconditioned (trained) to IOP measurement procedures three times daily (i.e. 07:00, 12:00, and 15:00±0.5 hours) at least three times/week for approximately seven weeks prior to Phase 1. Three readings/eye were taken using a TonoVet.
Intraocular pressure was measured at −1, 0 (predose), 1, 2, 4, 8, 12, 24, and 48 hours postdose (following the last dose, as applicable) for all animals in Group 1, Phases 1 through 10. Three readings/eye were taken using a TonoVet.
Animals selected for pharmacodynamics (Group 1) were administered SEQ ID NO:1 (12, 35, 105, or 210 μg/eye), latanoprost (0.35, 0.875, or 1.75 μg/eye), and latanoprost/SEQ ID NO:1 in combination to the right eye (OD) and vehicle or phosphate-buffered saline (PBS) to the left eye (OS).
Intraocular pressure (IOP) was measured at various time points from pre-dose to 48 hours post-dose.
Pharmacodynamic animals (Group 1) were unilaterally treated with a single topical ocular dose of latanoprost (0.001, 0.0025, and 0.005%), followed by approximately 5 minutes later with a dose of SEQ ID NO:1 0.03%, in the right eye (OD) only.

*1 amine or outer side, *2 acyl side, *3 side chain or, on linkers, in order; H or OH if unused. Where a SMILES comes first, the peptide text is derived from it. [ ]: non-standard residue; d: D form. The star is where a group is joined. dOrn(Me2) = CN(C)CCC[C@@H](N)C(=O)O; X1 = O=C([C@H]1CCCN([*:1])C1)[*:2]; Hyp = O=C(O)[C@@H]1C[C@@H](O)CN1; NMeL = CN[C@@H](CC(C)C)C(=O)O; Octanoyl = CCCCCCCC(=O)*

This is an account of results in US20180215788A1, “Compounds and Compositions for the Treatment of Ophthalmic Disorders” (Shire Human Genetic Therapies, Inc., priority 2017, published 2018).

Consider `CCCCCCCC(=O)N1CCC[C@H](C(=O)N[C@@H](Cc2ccccc2)C(=O)N[C@H](CCCN(C)C)C(=O)N[C@@H](CC(C)C)C(=O)N2C[C@H](O)C[C@H]2C(=O)N(C)[C@@H](CC(C)C)C(=O)N[C@@H](CC(=O)O)C(=O)N[C@@H](CCCNC(=N)N)C(=O)N[C@H](C(N)=O)[C@@H](C)CC)C1` [SEQ ID NO:1, Occ-Sni-Phe-orn(Me2)-Leu-Hyp-Nml-Asp-Arg-Ile-NH2] (Octanoyl-[X1]F[dOrn(Me2)]L[Hyp][NMeL]DRI-NH2), for which the “maximum percent change in intraocular pressure compared to contralateral eye” value is 16% and the intraocular pressure amounted to 12 mmHg.

Take `CC(C)OC(=O)CCC/C=C\C[C@@H]1[C@@H](CC[C@@H](O)CCc2ccccc2)[C@H](O)C[C@@H]1O` [latanoprost]: the “maximum percent change in intraocular pressure compared to contralateral eye” value amounted to 21% and the intraocular pressure is on record as 12 mmHg. Moreover, the “maximal delta decrease (Emax) in IOP, latanoprost dose response” value (dogs, latanoprost 0.001, 0.0025, 0.005% with SEQ ID NO:1 0.03%, FIG. 4) is listed as “greater with increasing latanoprost concentrations, in combination with SEQ ID NO:1”.
